Reference: paper PMC7006637, “Design, synthesis and α-glucosidase inhibition study of novel embelin derivatives” (Journal of Enzyme Inhibition and Medicinal Chemistry, 2020)
pIC50, pKi: −log10 of the molar value.

What was measured:
Assay type in all cases: biochemical, Saccharomyces cerevisiae
α-glucosidase [1] = experiment: α-glucosidase inhibition assay (PNPG substrate, OD 405 nm); conditions: for Inhibition rate: compound at 250 μM, 0.07 U/ml enzyme, 0.5 mM PNPG, pH 6.8, 37 °C; for α-glucosidase inhibitory activity (in words): SAR discussion; for pIC50: more than eight concentrations, GraphPad Prism 7.0
Procedure: The α-glucosidase inhibitory activity was determined on a Thermo Scientific Multiskan GO Microplate Reader. All compounds were dissolved in DMSO. p-Nitrophenol glucoside (PNPG) as a substrate and α-glucosidase (from Saccharomyces cerevisiae) were used for the bioassay. First, 0.7 U/ml α-glucosidase solution and 1 mmol/L PNPG solution in 0.1 M PBS (pH 6.8) were prepared. Next, 35 µl of 0.1 M PBS (pH 6.8), 10 µl of 0.7 U/ml α-glucosidase solution (final concentration: 0.07 U/ml), and 5 µl of sample solution were added to the 96-well plate. The mixture was pre-incubated for 10 min at 37 °C. Then, 50 µl of 1 mM PNPG (final concentration: 0.5 mM) was rapidly added to initiate the reaction. Then the 96-well plate was quickly transferred into the microplate reader, incubated at 37 °C for 30 min (1 min shake + 9 min incubation, repeated 3 times). After that, 50 µl of 1 M of Na2CO3 solution was added to each well to stop the reaction. The 96-well plate was quickly transferred into the microplate reader and shaken for 30 s. In the blank reference group, 5 µl DMSO replaced the sample solution, other operations were the same. The OD value was measured at 405 nm. The inhibition rate was calculated by Equation (1). (1) Inhibition rate (%) = [(A0−A1)/A0] × 100 where A0 is the OD of the control, and A1 is the OD of the sample. […] The IC50 values were calculated by GraphPad Prism 7.0 software.

α-glucosidase [2] = experiment: Inhibition mechanism: enzyme activity versus enzyme concentration plots; conditions: constant PNPG 1 mM; α-glucosidase 0.00-1.05 U/ml
Procedure: The inhibition mechanism of 10d, 12d, and 15d was determined by the following method: A series of diluted inhibitor solutions was prepared, at constant PNPG concentration (1 mM). The inhibition rates were measured by the above method with different concentrations of α-glucosidase (0.00, 0.35, 0.7, and 1.05 U/ml). […] Because the chemical structures of compounds 9d and 10d are very similar, compound 10d was selected as a representative in the next mechanism studies. The inhibition mechanism of the selected compounds 10d, 12d, 15d, and embelin on α-glucosidase was investigated using PNPG as the substrate. The relationship between enzyme activity and concentration in the presence of different concentrations of selected compounds was studied. […] Therefore, the inhibition of compounds 10d, 12d, 15d, and embelin against α-glucosidase is reversible.

α-glucosidase [3] = experiment: Enzyme kinetic study, Lineweaver–Burk double-reciprocal plots; conditions: for Inhibition type: Lineweaver–Burk plots, PNPG 0.2-1 mM, enzyme 0.7 U/ml; for pKi: from plot of slope (Km/Vm) versus inhibitor concentration, PNPG substrate, read-out: Ki value (inhibitor binding with free enzyme)
Procedure: The inhibition type of the enzyme was assayed by Lineweaver–Burk plots. A series of diluted inhibitor solutions was prepared, at constant α-glucosidase concentration (0.7 U/ml). The inhibition rates were measured by the above method with different concentrations of PNPG (1, 0.5, 0.4, 0.3, 0.25, and 0.2 mM). […] The kinetic data were expressed by Lineweaver–Burk double-reciprocal plots. […] Thus, these compounds bind not only with the free α-glucosidase but also with the α-glucosidase-PNPG complex. In other words, they inhibit the function of α-glucosidase by not only directly binding to free enzyme (EI), but also by interfering with the formation of the α-glucosidase-PNPG (ES) intermediate through producing an α-glucosidase-PNPG-inhibitor (ESI) complex in a non-competitive manner. The inhibition constant for the inhibitor binding with free enzyme (Ki) was determined from a plot of the slope (Km/Vm) versus the inhibitor concentration (Figure 6(A2–D2)), and the inhibition constant for the inhibitor binding with enzyme–substrate complex (Kis) was obtained from the vertical intercept (1/Vm) versus the inhibitor concentration (Figure 6(A3–D3))[34]. The results are collected in Table 3: the Kis values of all of them are smaller than their Ki values, which mean that they have higher affinity with the enzyme-substrate complex than with the free enzyme.

Compound	Inhibition rate (α-glucosidase [1]) [%]	other results
CCCC1=C(OC)C(=O)C=C(OC)C1=O [Compound 4a]	9.0	
CCCC1=C(O)C(=O)C=C(OC)C1=O [Compound 4b]	10.4	
CCCC1=C(OC)C(OC)=CC(=O)C1=O [Compound 4c]	14.9	
CCCC1=C(O)C(=O)C=C(O)C1=O [Compound 4d]	18.1	α-glucosidase inhibitory activity (in words) (α-glucosidase [1]): very low inhibitory effect
CCCCCC1=C(OC)C(=O)C=C(OC)C1=O [Compound 5a]	11.5	
CCCCCC1=C(O)C(=O)C=C(OC)C1=O [Compound 5b]	14.9	
CCCCCC1=C(OC)C(OC)=CC(=O)C1=O [Compound 5c]	16.4	
CCCCCC1=C(O)C(=O)C=C(O)C1=O [Compound 5d]	19.0	α-glucosidase inhibitory activity (in words) (α-glucosidase [1]): very low inhibitory effect
CCCCCCCC1=C(OC)C(=O)C=C(OC)C1=O [Compound 6a]	1.5	
CCCCCCCC1=C(O)C(=O)C=C(OC)C1=O [Compound 6b]	5.4	
CCCCCCCC1=C(OC)C(OC)=CC(=O)C1=O [Compound 6c]	16.1	
CCCCCCCC1=C(O)C(=O)C=C(O)C1=O [Compound 6d]	80.8	pIC50 (α-glucosidase [1]): 3.90
CCCCCCCCCC1=C(OC)C(=O)C=C(OC)C1=O [Compound 7a]	13.5	
CCCCCCCCCC1=C(O)C(=O)C=C(OC)C1=O [Compound 7b]	20.9	
CCCCCCCCCC1=C(OC)C(OC)=CC(=O)C1=O [Compound 7c]	33.2	
CCCCCCCCCC1=C(O)C(=O)C=C(O)C1=O [Compound 7d]	99.4	pIC50 (α-glucosidase [1]): 5.24
CCCCCCCCCCCC1=C(OC)C(=O)C=C(OC)C1=O [Compound 8a]	12.5	
CCCCCCCCCCCC1=C(O)C(=O)C=C(OC)C1=O [Compound 8b]	12.0	
CCCCCCCCCCCC1=C(OC)C(OC)=CC(=O)C1=O [Compound 8c]	0.6	
CCCCCCCCCCCCCC1=C(O)C(=O)C=C(O)C1=O [Compound 9d]	100	pIC50 (α-glucosidase [1]): 5.64
CCCCCCCCCCCCCCCC1=C(O)C(=O)C=C(O)C1=O [Compound 10d]	100	Inhibition mechanism (reversibility) (α-glucosidase [2]): reversible; pIC50 (α-glucosidase [1]): 5.74; Inhibition type (α-glucosidase [3]): Mixed-type; pKi (α-glucosidase [3]): 5.91
COC1=CC(=O)C(OC)=C(CCC(C)C)C1=O [Compound 11a]	1.5	

Compound	Inhibition rate (α-glucosidase [1]) [%]	other results
COC1=CC(=O)C(O)=C(CCC(C)C)C1=O [Compound 11b]	2.6	
COC1=CC(=O)C(=O)C(CCC(C)C)=C1OC [Compound 11c]	3.3	
CC(C)CCC1=C(O)C(=O)C=C(O)C1=O [Compound 11d]	37.6	
CC(C)CCCC(C)CCC1=C(O)C(=O)C=C(O)C1=O (centres unmarked) [Compound 12d]	100	Inhibition mechanism (reversibility) (α-glucosidase [2]): reversible; pIC50 (α-glucosidase [1]): 5.48; Inhibition type (α-glucosidase [3]): Mixed-type; pKi (α-glucosidase [3]): 5.43
COCCCC1=C(OC)C(=O)C=C(OC)C1=O [Compound 13a]	0	
COCCCC1=C(O)C(=O)C=C(OC)C1=O [Compound 13b]	0	
COCCCC1=C(OC)C(OC)=CC(=O)C1=O [Compound 13c]	0	
COCCCC1=C(O)C(=O)C=C(O)C1=O [Compound 13d]	0	
COC1=CC(=O)C(OC)=C(CCC2CCCCC2)C1=O [Compound 14a]	70.1	
COC1=CC(=O)C(O)=C(CCC2CCCCC2)C1=O [Compound 14b]	71.1	
COC1=CC(=O)C(=O)C(CCC2CCCCC2)=C1OC [Compound 14c]	74.7	
O=C1C=C(O)C(=O)C(CCC2CCCCC2)=C1O [Compound 14d]	85.2	pIC50 (α-glucosidase [1]): 4.34
O=C1C=C(O)C(=O)C(CCCCCCCc2ccccc2)=C1O [Compound 15d]	100	Inhibition mechanism (reversibility) (α-glucosidase [2]): reversible; pIC50 (α-glucosidase [1]): 5.44; Inhibition type (α-glucosidase [3]): Mixed-type; pKi (α-glucosidase [3]): 5.62
COC1=CC(=O)C(OC)=C(Cc2ccc3ccccc3c2)C1=O [Compound 16a]	6.0	
COC1=CC(=O)C(O)=C(Cc2ccc3ccccc3c2)C1=O [Compound 16b]	4.3	
COC1=CC(=O)C(=O)C(Cc2ccc3ccccc3c2)=C1OC [Compound 16c]	37.2	
O=C1C=C(O)C(=O)C(Cc2ccc3ccccc3c2)=C1O [Compound 16d]	81.4	pIC50 (α-glucosidase [1]): 4.13
COC1=CC(=O)C(OC)=C(Cc2ccc(-c3ccccc3)cc2)C1=O [Compound 17a]	5.1	
COC1=CC(=O)C(O)=C(Cc2ccc(-c3ccccc3)cc2)C1=O [Compound 17b]	14.3	
COC1=CC(=O)C(=O)C(Cc2ccc(-c3ccccc3)cc2)=C1OC [Compound 17c]	59.7	
O=C1C=C(O)C(=O)C(Cc2ccc(-c3ccccc3)cc2)=C1O [Compound 17d]	99.5	pIC50 (α-glucosidase [1]): 4.95
CCCCCCCCCCCC1=C(O)C(=O)C=C(O)C1=O [Embelin, 2,5-dihydroxy-3-undecyl-1,4-benzoquinone]	100	Inhibition mechanism (reversibility) (α-glucosidase [2]): reversible; pIC50 (α-glucosidase [1]): 5.38; Inhibition type (α-glucosidase [3]): Mixed-type; pKi (α-glucosidase [3]): 5.43
